Results reported in patent US20110275583A1, “Synergistic active compound combinations” (priority 2010, published 2011).
Like-named read-outs stand apart in the source and are kept apart here.

Key:
Type in all cases: in vivo
[1] = tested on: green peach aphid (Myzus persicae); assay: Myzus persicae test (spray treatment of infested cabbage leaves)
Source text: (§1) The expected action for a given combination of two active compounds can be calculated as follows, using the formula of S. R. Colby, Weeds 15 (1967), 20-22: • If • X is the kill rate, expressed as % of the untreated control, when employing active compound A at an application rate of m g/ha or in a concentration of in ppm, • Y is the kill rate, expressed as % of the untreated control, when employing active compound B at an application rate of n g/ha or in a concentration of n ppm and • E is the kill rate, expressed as % of the untreated control, when employing active compounds A and B at application rates of m and n g/ha or in a concentration of m and n ppm, • then
(§2) If the actual kill rate exceeds the calculated value, the action of the combination is superadditive, i.e. a synergistic effect is present. In this case, the actually observed kill rate must exceed the value calculated using the above formula for the expected kill rate (E).
(§3) Solvent: 78 parts by weight of acetone • • 1.5 parts by weight of dimethylformamide
(§4) Emulsifier: 0.5 part by weight of alkylaryl polyglycol ether
(§5) To produce a suitable preparation of active compound, 1 part by weight of active compound is mixed with the stated amounts of solvent and emulsifier, and the concentrate is diluted with emulsifier-containing water to the desired concentration.
Cabbage leaves (Brassica oleracea) which are heavily infested by the green peach aphid (Myzus persicae) are treated by spraying with the active compound preparation of the desired concentration.
After the desired period of time, the kill in % is determined. 100% means that all of the aphids have been killed; 0% means that none of the aphids have been killed. The kill rates determined are entered into Colby's formula.

[2] = tested on: larvae of the mustard beetle (Phaedon cochleariae); assay: Phaedon cochleariae larvae test (sprayed cabbage leaves); details: single active compound
Source text: as §1, §2, §3, §4, §5
Cabbage leaves (Brassica oleracea) are treated by spraying with the active compound preparation of the desired concentration and populated with larvae of the mustard beetle (Phaedon cochleariae) while the leaves are still moist.
After the desired period of time, the kill in % is determined. 100% means that all beetle larvae have been killed; 0% means that none of the beetle larvae have been killed. The kill rates determined are entered into Colby's formula.

[3] = tested on: greenhouse red spider mite (Tetranychus urticae); assay: Tetranychus test, OP-resistant/spray treatment (bean leaf discs); details: single active compound
Source text: as §1, §2, §3, §4, §5
Discs of bean leaves (Phaseolus vulgaris) which are infested by all stages of the greenhouse red spider mite (Tetranychus urticae) are sprayed with an active compound preparation of the desired concentration.
After the desired period of time, the effect in % is determined. 100% means that all of the spider mites have been killed; 0% means that none of the spider mites have been killed.

[4] = tested on: armyworm (Spodoptera frugiperda); assay: Spodoptera frugiperda larvae test (sprayed cabbage leaves); details: Spodoptera frugiperda, single active compound
Source text: as §1, §2, §3, §4, §5
Cabbage leaves (Brassica oleracea) are treated by being sprayed with the preparation of active compound of the desired concentration and are populated with the armyworm (Spodoptera frugiperda) while the leaves are still moist.
After the desired period of time, the kill in % is determined. 100% means that all caterpillars have been killed; 0% means that none of the caterpillars have been killed. The kill rates determined are entered, into Colby's formula.

[5] = Myzus persicae, 24 h, after 1 d, read-out: Kill in % after 1d
[6] = Tetranychus urticae, foliar, 144 h, 20 g/ha, 6 d, read-out: Kill in % after 6 d
[7] = 48 h, 2 d, read-out: Kill in % after 2 d
[8] = Myzus persicae, 24 h, 0.16 g/ha, after 1 d, read-out: Kill in % after 1d
[9] = Phaedon cochleariae, 144 h, 20 g/ha, 6 d, read-out: Kill in % after 6 d
[10] = Tetranychus urticae, foliar, 144 h, 4 g/ha, 6 d, read-out: Kill in % after 6 d
[11] = Myzus persicae, 144 h, single active compound, 6 d, read-out: Kill in % after 6 d
[12] = Phaedon cochleariae, 48 h, 20 g/ha, 2 d, read-out: Kill in % after 2 d
[13] = Phaedon cochleariae, 144 h, 6 d, read-out: Kill in % after 6 d
[14] = 144 h, 6 d, read-out: Kill in % after 6 d
[15] = Myzus persicae, 144 h, 0.16 g/ha, single active compound, 6 d, read-out: Kill in % after 6 d
[16] = Tetranychus urticae, foliar, 48 h, 2 d, read-out: Kill in % after 2 d
[17] = Tetranychus urticae, foliar, 48 h, 4 g/ha, 2 d, read-out: Kill in % after 2 d
[18] = Tetranychus urticae, foliar, 144 h, 6 d, read-out: Kill in % after 6 d

Compound: CC1(C)C(C=C(Cl)Cl)C1C(=O)OC(C#N)c1cccc(Oc2ccccc2)c1 (stereo not shown) [cypermethrin]
- pest or weed control at 0.8 g/ha [1, 5]: 70%
- pest or weed control at 4 g/ha ([2]; Phaedon cochleariae, 48 h, 4 g/ha, 2 d, read-out: Kill in % after 2 d): 17%
- pest or weed control at 20 g/ha [3, 6]: 0%

Compound: CNC(=O)Oc1cc(C)c(SC)c(C)c1 [methiocarb]
- pest or weed control at 100 g/ha ([2]; Phaedon cochleariae, 48 h, 2 d, read-out: Kill in % after 2 d): 50%
- pest or weed control at 100 g/ha [4, 7]: 0%

Compound: O=[N+]([O-])/N=C1\NCCN1Cc1ccc(Cl)nc1 [imidacloprid]
- pest or weed control at 0.16 g/ha [1, 8]: 0%
- pest or weed control at 20 g/ha [2, 9]: 33%

Compound: COc1cccc(C(=O)NN(C(=O)c2cc(C)cc(C)c2)C(C)(C)C)c1C [methoxyfenozide]
- pest or weed control at 20 g/ha [4, 7]: 33%

Compound: CC(c1ccc(C(F)(F)F)nc1)S(C)(=O)=NC#N (stereo not shown) [sulfoxaflor]
- pest or weed control at 4 g/ha [3, 10]: 0%

Compound: spinosad
- Kill in % after 2 d ([2]; 4 g/ha, 2 d): 33%
- Kill in % after 6 d ([3]; 20 g/ha, 6 d): 80%

Compound: CN/C(=N\[N+](=O)[O-])NCC1CCOC1 (stereo not shown) [dinotefuran]
- pest or weed control at 4 g/ha [1, 5]: 0%
- pest or weed control at 4 g/ha [1, 11]: 0%
- pest or weed control at 20 g/ha [2, 12]: 17%

Compound: O=C(NC(=O)c1c(F)cccc1F)Nc1cc(Cl)c(OC(F)(F)C(F)C(F)(F)F)cc1Cl (stereo not shown) [lufenuron]
- pest or weed control at 100 g/ha [2, 13]: 33%
- pest or weed control at 4 g/ha [4, 14]: 0%

Compound: O=C(NC(=O)c1c(F)cccc1F)Nc1ccc(OC(F)(F)C(F)OC(F)(F)F)c(Cl)c1 (stereo not shown) [novaluron]
- pest or weed control at 100 g/ha [2, 13]: 0%

Compound: CN1COCN(Cc2cnc(Cl)s2)/C1=N/[N+](=O)[O-] [thiamethoxam]
- pest or weed control at 0.16 g/ha [1, 8]: 0%
- pest or weed control at 0.16 g/ha [1, 15]: 0%
- pest or weed control at 20 g/ha [2, 9]: 50%

Compound: CC[S+]([O-])c1c(C#N)nn(-c2c(Cl)cc(C(F)(F)F)cc2Cl)c1N (stereo not shown) [ethiprole]
- pest or weed control at 20 g/ha [1, 5]: 0%
- pest or weed control at 0.16 g/ha ([2]; Phaedon cochleariae, 144 h, 0.16 g/ha, 6 d, read-out: Kill in % after 6 d): 0%
- pest or weed control at 20 g/ha [3, 6]: 0%

Compound: milbemectin
- Kill in % after 6 d ([2]; 20 g/ha, 6 d): 0%

Compound: Cc1cc(C(F)(C(F)(F)F)C(F)(F)F)ccc1NC(=O)c1cccc(I)c1C(=O)NC(C)(C)CS(C)(=O)=O [flubendiamide, Flubendiamide]
- pest or weed control at 0.8 g/ha [1, 11]: 0%
- pest or weed control at 4 g/ha [4, 14]: 33%

Compound: CCc1nn(C)c(C(=O)NCc2ccc(C(C)(C)C)cc2)c1Cl [tebufenpyrad, Tebufenpyrad]
- pest or weed control at 20 g/ha [1, 5]: 0%
- pest or weed control at 100 g/ha [2, 13]: 0%
- pest or weed control at 0.8 g/ha [3, 16]: 0%
- pest or weed control at 4 g/ha [3, 17]: 70%

Compound: O=C(NC(=O)c1c(F)cccc1F)Nc1ccc(Oc2ccc(C(F)(F)F)cc2Cl)cc1F [flufenoxuron]
- pest or weed control at 20 g/ha [4, 14]: 33%

Compound: CCOC(=O)OC1=C(c2cc(C)ccc2C)C(=O)N[C@]12CC[C@@H](OC)CC2 [spirotetramat]
- pest or weed control at 0.16 g/ha [1, 15]: 0%

Compound: CC(=O)N1C(=O)N(NCc2cccnc2)Cc2cc(C(F)(C(F)(F)F)C(F)(F)F)ccc21 [pyrifluquinazone]
- pest or weed control at 100 g/ha ([3]; Tetranychus urticae, foliar, 144 h, 100 g/ha, 6 d, read-out: Kill in % after 6 d): 0%

Compound: N#Cc1ccc(CC(=NNC(=O)Nc2ccc(OC(F)(F)F)cc2)c2cccc(C(F)(F)F)c2)cc1 (mixture of isomers) [metaflumizone]
- pest or weed control at 4 g/ha [1, 11]: 0%
- pest or weed control at 100 g/ha [4, 7]: 0%

Compound: CCOCn1c(-c2ccc(Cl)cc2)c(C#N)c(Br)c1C(F)(F)F [chlorfenapyr]
- pest or weed control at 100 g/ha [4, 7]: 50%

Compound: CCC(C)(C)C(=O)OC1=C(c2ccc(Cl)cc2Cl)C(=O)OC12CCCCC2 [spirodiclofen]
- pest or weed control at 4 g/ha [1, 11]: 0%
- pest or weed control at 0.8 g/ha [3, 18]: 20%

Compound: O=C(NC(=O)c1ccccc1Cl)Nc1ccc(OC(F)(F)F)cc1 [triflumuron]
- pest or weed control at 4 g/ha [4, 14]: 17%

Compound: spinetoram
- Kill in % after 2 d ([2]; 4 g/ha, 2 d): 50%

Compound: Cc1cc(F)c(-n2nc(C(F)(F)F)nc2N)cc1[S+]([O-])CC(F)(F)F (stereo not shown) [1-{2-fluoro-4-methyl-5-[(2,2,2-trifluoroethyl)sulphinyl]phenyl}-3-(trifluoromethyl)-1H-1,2,4-triazole-5-amine]
- pest or weed control at 100 g/ha [2, 13]: 0%
- pest or weed control at 0.8 g/ha [3, 18]: 0%
- pest or weed control at 4 g/ha [3, 10]: 80%

Compound: CC1(C)C(/C=C/C(=O)OC(C(F)(F)F)C(F)(F)F)C1C(=O)OC(C#N)c1cccc(Oc2ccccc2)c1 (stereo not shown) [acrinathrin]
- pest or weed control at 0.8 g/ha ([4]; 144 h, 0.8 g/ha, 6 d, read-out: Kill in % after 6 d): 0%

Compound: CC1(C)[C@H](C=C(Cl)Cl)[C@H]1C(=O)OCc1c(F)c(F)cc(F)c1F [transfluthrin]
- pest or weed control at 4 g/ha [4, 14]: 33%

Compound: CC(C)N1C(=O)N(c2ccccc2)CS/C1=N\C(C)(C)C [buprofezin]
- pest or weed control at 500 g/ha ([1]; Myzus persicae, 144 h, 500 g/ha, single active compound, 6 d, read-out: Kill in % after 6 d): 0%

Compound: CNC(=O)Oc1cccc2c1OC(C)(C)C2 [carbofuran]
- pest or weed control at 4 g/ha [4, 14]: 0%

Compound: N#C/N=C1\SCCN1Cc1ccc(Cl)nc1 [thiacloprid]
- pest or weed control at 0.16 g/ha [1, 8]: 0%
- pest or weed control at 0.16 g/ha [1, 15]: 0%
- pest or weed control at 20 g/ha [2, 9]: 0%

Compound: Cc1cc(C)c(C2=C(OC(=O)CC(C)(C)C)C3(CCCC3)OC2=O)c(C)c1 [spiromesifen]
- pest or weed control at 0.8 g/ha [1, 11]: 0%
- pest or weed control at 20 g/ha ([3]; Tetranychus urticae, foliar, 48 h, 20 g/ha, 2 d, read-out: Kill in % after 2 d): 0%

Compound: CS/C(C)=N\OC(=O)N(C)SN(C)C(=O)O/N=C(\C)SC [thiodicarb]
- pest or weed control at 100 g/ha ([1]; Myzus persicae, 24 h, 100 g/ha, after 1 d, read-out: Kill in % after 1d): 0%

Compound: C/C(=N\C#N)N(C)Cc1ccc(Cl)nc1 [acetamiprid]
- pest or weed control at 0.16 g/ha [1, 15]: 0%
- pest or weed control at 20 g/ha [2, 9]: 0%

Compound: Cc1nn(C)c(Oc2ccccc2)c1C=NOCc1ccc(C(=O)OC(C)(C)C)cc1 [fenpyroximate, Fenpyroximate]
- pest or weed control at 20 g/ha [2, 12]: 0%

Compound: abamectin
- Kill in % after 1d ([1]; 0.16 g/ha, after 1 d): 0%
- Kill in % after 6 d ([1]; 0.16 g/ha, single active compound, 6 d): 0%
- Kill in % after 6 d ([2]; 0.16 g/ha, 6 d): 0%
- Kill in % after 2 d ([3]; 4 g/ha, 2 d): 0%

Compound: O=C1C=C(N(Cc2ccc(Cl)nc2)CC(F)F)CO1 [4-{[(6-chloropyrid-3-yl)methyl](2,2-difluoroethyl)amino}furan-2(5H)-one]
- pest or weed control at 4 g/ha [1, 5]: 70%

Compound: CC1(C)[C@H](/C=C(\Cl)C(F)(F)F)[C@@H]1C(=O)O[C@H](C#N)c1cccc(Oc2ccccc2)c1 [gamma-cyhalothrin]
- pest or weed control at 0.032 g/ha ([1]; Myzus persicae, 24 h, 0.032 g/ha, after 1 d, read-out: Kill in % after 1d): 0%
- pest or weed control at 0.8 g/ha [3, 16]: 0%

Compound: Cc1c(F)c(F)c(COC(=O)[C@@H]2[C@H](/C=C(\Cl)C(F)(F)F)C2(C)C)c(F)c1F (racemic) [tefluthrin]
- pest or weed control at 4 g/ha [1, 5]: 70%
- pest or weed control at 20 g/ha [2, 9]: 33%

Compound: CC(C)c1cc(Oc2ccccc2)cc(C(C)C)c1NC(=S)NC(C)(C)C [diafenthiuron]
- pest or weed control at 20 g/ha [1, 5]: 0%
- pest or weed control at 4 g/ha [3, 17]: 0%
